US8637672B2 (Deciphera Pharmaceuticals, LLC, priority 2010, dated 2014)

Key:
[1] = molecular target: T1, VEGFR-1 (FLT1 kinase) (Homo sapiens, UniProt P17948); assay: FLT1 Kinase Assay (VEGFR-1); type: biochemical; settings: for Fold Selectivity VEGR-1/MET: ratio VEGFR-1 IC50 / MET IC50; for IC50: methods of the Biological Data section
T1 construct: GST tagged recombinant human FLT1, amino acids 781-1338; GST; host or cells: insect cells
T1 sequence (P17948 781-1338): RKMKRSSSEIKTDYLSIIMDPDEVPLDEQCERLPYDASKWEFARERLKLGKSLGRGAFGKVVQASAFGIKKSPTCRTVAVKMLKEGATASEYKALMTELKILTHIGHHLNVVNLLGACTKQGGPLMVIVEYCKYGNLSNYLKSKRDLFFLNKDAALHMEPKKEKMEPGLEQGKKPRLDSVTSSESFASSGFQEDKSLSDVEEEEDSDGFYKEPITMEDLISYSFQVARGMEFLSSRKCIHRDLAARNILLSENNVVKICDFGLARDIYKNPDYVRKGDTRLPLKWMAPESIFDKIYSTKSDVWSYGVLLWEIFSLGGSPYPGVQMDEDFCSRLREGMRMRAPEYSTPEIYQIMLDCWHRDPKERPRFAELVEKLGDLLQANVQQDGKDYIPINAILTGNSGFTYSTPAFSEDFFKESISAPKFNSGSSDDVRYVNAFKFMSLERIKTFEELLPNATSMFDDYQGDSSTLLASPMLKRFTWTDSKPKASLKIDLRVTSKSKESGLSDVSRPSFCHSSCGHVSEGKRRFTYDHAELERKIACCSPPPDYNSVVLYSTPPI
Protocol: Activity of FLT1 kinase was determined by a radioactive filtration binding assay where incorporation of ^33P from ^33P-γ-ATP to the substrate is measured. In this assay, detection of ^33P was indicative of FLT1 phosphorylation activity which was directly proportional to the amount of phosphorylated peptide substrate poly[Glu:Tyr] (4:1). Initially, the reaction mixture contained: 400 nM FLT1, 20 mM HEPES, pH 7.5, 10 mM MgCl2, 2 mM MnCl2, 1 mM EGTA, 0.02% Brij 35, 0.02 mg/mL BSA, 0.1 mM Na3VO4, and 2 mM DTT. The reaction mixture was incubated with compound at room temperature for 30 minutes. To initiate the reaction, an equal volume of 20 μM ATP and 0.2 mg/mL peptide substrate were added and then incubated at room temperature for 2 hours. The final assay conditions were: 200 nM FLT1, 10 μM ATP, 0.1 mg/ml, substrate 20 mM HEPES, pH 7.5, 10 mM MgCl2, 1 mM EGTA, 0.02% Brij 35, 0.02 mg/mL BSA, 0.1 mM Na3VO4, 2 mM DTT, and 1% DMSO. IC50 values were calculated from a series of % Activity values determined at a range of inhibitor concentrations using software routines as implemented in the Graph Pad Prism software package.
GST tagged recombinant human FLT1, amino acids 781-1338. Expressed in insect cells.

[2] = molecular target: T2, RET kinase (Homo sapiens, UniProt P07949); assay: RET Kinase Assay; type: biochemical; settings: for Fold Selectivity RET/MET: ratio RET IC50 / MET IC50; for IC50: methods of the Biological Data section
T2 construct: GST tagged recombinant human RET, amino acids 658-1114; GST; purchased Invitrogen; host or cells: insect cells
T2 sequence (P07949 658-1114): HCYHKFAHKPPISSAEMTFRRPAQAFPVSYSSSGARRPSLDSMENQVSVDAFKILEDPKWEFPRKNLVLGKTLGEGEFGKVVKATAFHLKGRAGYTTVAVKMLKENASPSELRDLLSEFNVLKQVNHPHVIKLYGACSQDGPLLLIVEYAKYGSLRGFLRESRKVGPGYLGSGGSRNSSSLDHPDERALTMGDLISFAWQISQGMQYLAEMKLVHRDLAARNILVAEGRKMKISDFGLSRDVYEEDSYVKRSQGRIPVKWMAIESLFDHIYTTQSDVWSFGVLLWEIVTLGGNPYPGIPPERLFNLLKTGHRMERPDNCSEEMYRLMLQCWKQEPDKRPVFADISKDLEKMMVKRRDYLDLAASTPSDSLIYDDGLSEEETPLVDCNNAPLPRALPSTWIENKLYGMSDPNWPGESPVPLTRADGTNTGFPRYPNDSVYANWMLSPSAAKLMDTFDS
Protocol: Activity of RET kinase was determined by following the production of ADP from the kinase reaction through coupling with the pyruvate kinase/lactate dehydrogenase system (see e.g., Schindler et al. Science (2000) 289: 1938-1942). In this assay, the oxidation of NADH (thus the decrease at A340 nm) was continuously monitored spectrophotometrically. The reaction mixture (100 μl) contained RET (amino acid residues 658-1114, from Invitrogen, 2 nM), polyE4Y (1.5 mg/ml), MgCl2 (18 mM), pyruvate kinase (4 units), lactate dehydrogenase (0.7 units), phosphoenol pyruvate (1 mM), and NADH (0.28 mM) in 90 mM […] buffer containing 0.2% octyl-glucoside, 1 mM DTT and 1% DMSO, pH 7.5. Test compounds were incubated with RET kinase and other reaction reagents at 22° C. for <2 min before ATP (500 μM) was added to start the reaction. The absorption at 340 nm was monitored continuously for 3 hours at 30° C. on BioTek Synergy 2 Reader. The reaction rate was calculated using the 1 to 2 h time frame. Percent inhibition was obtained by comparison of reaction rate with that of a control (i.e., with no test compound). IC50 values were calculated from a series of percent inhibition values determined at a range of inhibitor concentrations using software routines as implemented in the GraphPad Prism software package.
GST tagged recombinant human RET, amino acids 658-1114. Expressed in insect cells.

Compound: O=C(Nc1cc(Oc2cc(F)c(NC(=O)C3(C(=O)Nc4ccc(F)cc4)CC3)cc2F)ccn1)N1CC(CO)C1 [Compound H]
- Fold Selectivity VEGR-1/MET [1]: 3.5
- Fold Selectivity RET/MET [2]: 7

Compound: CN1CCN(C2CCN(C(=O)Nc3cc(Oc4cc(F)c(NC(=O)C5(C(=O)Nc6ccc(F)cc6)CC5)cc4F)ccn3)CC2)CC1 [Compound G]
- Fold Selectivity VEGR-1/MET [1]: 0.45
- Fold Selectivity RET/MET [2]: 0.81

Compound: CC(=O)Nc1cc(Oc2cc(F)c(NC(=O)C3(C(=O)Nc4ccc(F)cc4)CC3)cc2F)ccn1 [Compound D, N-(4-(2-acetamidopyridin-4-yloxy)-2,5-difluorophenyl)-N′-(4-fluorophenyl)cyclopropane-1,1-dicarboxamide]
- IC50 [1]: 79 nM
- Fold Selectivity VEGR-1/MET [1]: 19.75
- IC50 [2]: > 3300 nM
- Fold Selectivity RET/MET [2]: >825

Compound: CC(=O)Nc1cc(Oc2ccc(NC(=O)C3(C(=O)Nc4ccc(F)cc4)CC3)c(F)c2)ccn1 [Compound E, N-(4-(2-acetamidopyridin-4-yloxy)-2-fluorophenyl)-N′-(4-fluorophenyl)cyclopropane-1,1-dicarboxamide]
- IC50 [1]: 160 nM
- Fold Selectivity VEGR-1/MET [1]: 6.15
- IC50 [2]: 43 nM
- Fold Selectivity RET/MET [2]: 1.65
